Non-standard residues stand in square brackets, D forms with d. Residues, ends and D or L forms follow the SMILES beside them. ξ: configuration not given here. *: point of attachment. X5 = CCc1cc(OC)ccc1-c1ccc(CC(N*)C(=S)NC(CCCc2ccccc2F)C(N)=O)cc1; ξNMeBip(2'-Et,4'-OMe) = CCc1cc(OC)ccc1-c1ccc(CC(NC)C(=O)O)cc1; Leu(5,5,5,5',5',5'-F6) = N[C@@H](CC(C(F)(F)F)C(F)(F)F)C(=O)O; ξBip(2'-Et-4'-OMe) = CCc1cc(OC)ccc1-c1ccc(CC(N)C(=O)O)cc1; ξNva(5-(3,5-Me2-Ph)) = Cc1cc(C)cc(CCCC(N)C(=O)O)c1; ξNva(5-(4-Cl-2-MePh)) = Cc1cc(Cl)ccc1CCCC(N)C(=O)O; ξNMeNva(5-(2-F-Ph)) = CNC(CCCc1ccccc1F)C(=O)O; ξNva(5-(3-Cl-Ph)) = NC(CCCc1cccc(Cl)c1)C(=O)O; ξαMePhe(2-F) = CC(N)(Cc1ccccc1F)C(=O)O; NMeD = CN[C@@H](CC(=O)O)C(=O)O; aThr = C[C@H](O)[C@H](N)C(=O)O; Ac5c = NC1(C(=O)O)CCCC1; Aib = CC(C)(N)C(=O)O
Columns and labels:
DPP IV = DPP IV (Homo sapiens, UniProt P27487); assay: Stability against DPP IV enzyme; type: in vitro ADME; conditions: 37° C.; for % degradation of peptidomimetics in 24 h when incubated with DPP-IV enzyme: 2 μM peptidomimetic; for half-life at 2 μM: DPP IV enzyme, pH 7.8, 2 μM peptidomimetic, read-out: half-life (t1/2) when incubated with DPP-IV enzyme
Protocol: (§1) Reactions were terminated by the addition of TFA/H2O (15 mL, 10% (v/v)). […] The column was equilibrated with TFA/H20, at a flow rate of 1 mL/min.

[1] = Stability in human plasma; type: in vitro ADME; conditions: 2 μM peptidomimetic, pooled human plasma, 37° C.; for half-life at 2 μM: pH 7.8, read-out: half-life (t1/2) when incubated with human plasma
Protocol: as §1

[2] = Stability in simulated gastric fluid; type: in vitro ADME; conditions: 2 μM peptidomimetic, simulated gastric fluid pH 1.5, 37° C.; for half-life at 2 μM: read-out: half-life (t1/2) when incubated with simulated gastric fluid
Protocol: as §1

[3] = Stability in simulated intestinal fluid; type: in vitro ADME; conditions: 2 μM peptidomimetic, simulated intestinal fluid pH 7.5, 37° C.; for half-life at 2 μM: read-out: half-life (t1/2) when incubated with simulated intestinal fluid
Protocol: as §1

[4] = Stability in liver microsomes; type: in vitro ADME; conditions: 2 μM peptidomimetic, human liver microsomes, 37° C.
Protocol: as §1

[5] = test system: RIN5F (Rat Insulinoma) cells; assay: In vitro glucose-dependent insulin secretion (RIN5F cell assay screening protocol); type: cell-based; conditions: 16.7 mM glucose load
Protocol: RIN5F (Rat Insulinoma) cells were cultured in RPMI 1640 medium supplemented with sodium pyruvate (1 mM) HEPES and Glucose (4.5 g/L) in a humidified incubator (5% CO2), at 37° C. After trypsinization, RIN5F cells were seeded at a concentration of 0.2×10^6 cells per well, in 12 well plates.
The buffer was replaced after 40 min. and the cells were incubated (37° C.) with the test peptidomimetics, at different concentration, for 30 min., both in the presence (16.7 mM) and absence (0 mM) of glucose load. The supernatant was collected and the insulin amount was measured by ultra sensitive Rat insulin ELISA kit (Crystal Chem, IL). The protein was estimated in the supernatant using Bicinchoninic Acid kit, according to the manufacturer's protocol (Sigma Aldrich, MO). The total insulin content obtained in Pico-gram (pg) was divided with the total protein (μg) in order to normalize for differences in cell density between wells.

human glucagon receptor = target: T1, human glucagon receptor (Homo sapiens, UniProt P47871); assay: In vitro human glucagon antagonist activity (inhibition of cAMP production) in CHO/human glucagon R cells; type: cell-based; conditions: with saturated concentration of glucagon peptide
T1 construct: The full-length cDNA was cloned in pcDNA3.1 (Invitrogen); expressed in transfected cells
T1 sequence (P47871 26-477): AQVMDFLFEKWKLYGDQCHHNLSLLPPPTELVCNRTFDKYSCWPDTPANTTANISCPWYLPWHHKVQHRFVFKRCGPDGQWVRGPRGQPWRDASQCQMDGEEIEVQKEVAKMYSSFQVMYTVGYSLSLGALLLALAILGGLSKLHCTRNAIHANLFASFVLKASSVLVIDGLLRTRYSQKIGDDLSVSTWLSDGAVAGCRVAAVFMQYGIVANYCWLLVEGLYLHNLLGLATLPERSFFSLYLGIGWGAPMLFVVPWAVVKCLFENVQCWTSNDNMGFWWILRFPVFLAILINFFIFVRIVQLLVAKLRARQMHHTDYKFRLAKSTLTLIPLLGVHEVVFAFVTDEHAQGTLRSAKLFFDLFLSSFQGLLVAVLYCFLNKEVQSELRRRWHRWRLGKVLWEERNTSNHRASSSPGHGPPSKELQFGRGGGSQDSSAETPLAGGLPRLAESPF

DPP IV, sequence (P27487 whole entry, species assumed): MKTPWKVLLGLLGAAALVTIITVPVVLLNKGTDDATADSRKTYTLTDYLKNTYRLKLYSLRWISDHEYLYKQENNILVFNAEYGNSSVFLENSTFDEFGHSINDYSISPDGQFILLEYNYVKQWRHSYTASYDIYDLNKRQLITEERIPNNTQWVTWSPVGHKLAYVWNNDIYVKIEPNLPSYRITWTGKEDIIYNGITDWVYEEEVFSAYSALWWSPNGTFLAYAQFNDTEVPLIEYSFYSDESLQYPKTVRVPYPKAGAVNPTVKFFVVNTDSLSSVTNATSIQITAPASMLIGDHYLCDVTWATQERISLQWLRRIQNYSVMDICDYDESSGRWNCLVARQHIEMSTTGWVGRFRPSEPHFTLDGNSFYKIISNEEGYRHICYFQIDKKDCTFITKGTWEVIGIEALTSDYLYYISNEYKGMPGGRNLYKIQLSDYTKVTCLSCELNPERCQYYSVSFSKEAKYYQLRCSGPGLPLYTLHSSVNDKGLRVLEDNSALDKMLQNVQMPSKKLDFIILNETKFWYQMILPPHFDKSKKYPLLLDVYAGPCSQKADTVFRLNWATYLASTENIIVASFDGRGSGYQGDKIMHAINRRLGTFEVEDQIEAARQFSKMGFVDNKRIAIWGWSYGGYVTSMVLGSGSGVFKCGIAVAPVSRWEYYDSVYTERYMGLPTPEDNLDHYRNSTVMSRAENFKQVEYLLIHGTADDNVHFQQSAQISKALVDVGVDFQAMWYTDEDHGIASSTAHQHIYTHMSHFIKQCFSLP

| % degradation of peptidomimetics in 24 h when incubated with DPP-IV enzyme (DPP IV) [%] | half-life at 2 μM (DPP IV) [h] | % degradation of peptidomimetics in 24 h when incubated with human plasma [1] [%] | half-life at 2 μM [1] [h] | % degradation of peptidomimetics in 24 h when incubated with simulated gastric fluid [2] [%] | half-life at 2 μM [2] [h] | % degradation of peptidomimetics in 24 h when incubated with simulated intestinal fluid [3] [%] | half-life at 2 μM [3] [h] | half-life (t1/2) when incubated with liver microsomes [4] | % degradation of peptidomimetics in 24 h when incubated with liver microsomes [4] [%] | half-life (t1/2) when incubated with simulated intestinal fluid [3] | half-life at 2 μM ([4]; pH 7.8, read-out: half-life (t1/2) when incubated with liver microsomes) [h] | Compound | Insulin secretion ([5]; 0.1 nM test compd.) [pg/µg/h] | Insulin secretion ([5]; 1 nM test compd.) [pg/µg/h] | Insulin secretion ([5]; 10 nM test compd.) [pg/µg/h] | Human Glucagon receptor antagonistic activity shown as inhibition of cAMP production of Glucagon peptide (human glucagon receptor; 1 nM test compound) [pmol/ml/μg prt] | Human Glucagon receptor antagonistic activity shown as inhibition of cAMP production of Glucagon peptide (human glucagon receptor; 10 nM test compound) [pmol/ml/μg prt] | Human Glucagon receptor antagonistic activity shown as inhibition of cAMP production of Glucagon peptide (human glucagon receptor; 100 nM test compound) [pmol/ml/μg prt] | Human Glucagon receptor antagonistic activity shown as inhibition of cAMP production of Glucagon peptide (human glucagon receptor; 1 μM test compound) [pmol/ml/μg prt] | Human Glucagon receptor antagonistic activity shown as inhibition of cAMP production of Glucagon peptide (human glucagon receptor; 10 μM test compound) [pmol/ml/μg prt] |
| --- | --- | --- | --- | --- | --- | --- | --- | --- | --- | --- | --- | --- | --- | --- | --- | --- | --- | --- | --- | --- |
| 00 | > 24 | 00 | > 24 | 00 | > 24 | 00 | > 24 | (5) h | 35 |  |  | CCc1cc(OC)ccc1-c1ccc(CC(NC(=O)[C@H](CC(=O)O)NC(=O)[C@H](CO)NC(=O)[C@@H](NC(=O)C(C)(Cc2ccccc2F)NC(=O)[C@@H](NC(=O)CNC(=O)[C@H](CC(C(F)(F)F)C(F)(F)F)NC(=O)C(C)(C)NC(=O)[C@@H](N)Cc2c[nH]cn2)[C@@H](C)O)[C@@H](C)O)C(=O)NC(CCCc2cccc(Cl)c2)C(N)=O)cc1 (stereo partly drawn) [compound 236] (H-H[Aib][Leu(5,5,5,5',5',5'-F6)]GT[ξαMePhe(2-F)]TSD[ξBip(2'-Et-4'-OMe)][ξNva(5-(3-Cl-Ph))]-NH2) |  |  |  |  |  |  |  |  |
| 71 | 8 | 69 | 8 | 11 | 7 | 43 |  |  | 77 | (6) h | 2 | CCc1cc(OC)ccc1-c1ccc(CC(NC(=O)[C@H](CC(=O)O)NC(=O)[C@H](CO)NC(=O)[C@@H](NC(=O)[C@H](Cc2ccccc2)NC(=O)[C@@H](NC(=O)CNC(=O)[C@H](CCC(N)=O)NC(=O)[C@H](CO)NC(=O)[C@@H](N)Cc2c[nH]cn2)[C@@H](C)O)[C@@H](C)O)C(=O)NC(CCCc2cccc(Cl)c2)C(N)=O)cc1 (stereo partly drawn) [compound 7] (H-HSQGTFTSD[ξBip(2'-Et-4'-OMe)][ξNva(5-(3-Cl-Ph))]-NH2) |  |  |  |  |  |  |  |  |
| 00 | > 24 | 00 | > 24 | 00 | > 24 | 00 | > 24 | (5) h | 32 |  |  | CCc1cc(OC)ccc1-c1ccc(CC(C(=O)N(C)C(CCCc2ccccc2F)C(N)=O)N(C)C(=O)[C@H](CC(=O)O)N(C)C(=O)[C@H](CO)NC(=O)[C@@H](NC(=O)C(C)(Cc2ccccc2F)NC(=O)[C@@H](NC(=O)CNC(=O)[C@H](CC(C(F)(F)F)C(F)(F)F)NC(=O)C(C)(C)NC(=O)[C@@H](N)Cc2c[nH]cn2)[C@H](C)O)[C@H](C)O)cc1 (stereo partly drawn) [compound 221] (H-H[Aib][Leu(5,5,5,5',5',5'-F6)]G[aThr][ξαMePhe(2-F)][aThr]S[NMeD][ξNMeBip(2'-Et,4'-OMe)][ξNMeNva(5-(2-F-Ph))]-NH2) |  |  |  |  |  |  |  |  |
| 00 | > 24 | 00 | > 24 | 00 | > 24 | 00 | > 24 | (5) h | 35 |  |  | CCc1cc(OC)ccc1-c1ccc(CC(NC(=O)[C@H](CC(=O)O)NC(=O)[C@H](CO)NC(=O)[C@@H](NC(=O)[C@H](Cc2ccccc2)NC(=O)[C@@H](NC(=O)CNC(=O)[C@H](CCC(N)=O)NC(=O)[C@H](CO)NC(=O)[C@@H](N)Cc2c[nH]cn2)[C@@H](C)O)[C@@H](C)O)C(=O)NC(CCCc2ccc(Cl)cc2C)C(N)=O)cc1 (stereo partly drawn) [compound 8] (H-HSQGTFTSD[ξBip(2'-Et-4'-OMe)][ξNva(5-(4-Cl-2-MePh))]-NH2) |  |  |  |  |  |  |  |  |
|  |  |  |  |  |  |  |  |  |  |  |  | CCc1cc(OC)ccc1-c1ccc(CC(NC(=O)[C@H](CC(=O)O)NC(=O)[C@H](CO)NC(=O)[C@@H](NC(=O)[C@H](Cc2ccccc2)NC(=O)[C@@H](NC(=O)CNC(=O)[C@H](CCC(N)=O)NC(=O)C2(NC(=O)[C@@H](N)Cc3c[nH]cn3)CCCC2)[C@@H](C)O)[C@@H](C)O)C(=O)NC(CCCc2cc(C)cc(C)c2)C(N)=O)cc1 (stereo partly drawn) [compound 26] (H-H[Ac5c]QGTFTSD[ξBip(2'-Et-4'-OMe)][ξNva(5-(3,5-Me2-Ph))]-NH2) | 16.6 ± 0.41 | 22.9 ± 0.32 | 36.6 ± 0.19 | 15 ± 0.11 | 12 ± 0.13 | 8 ± 0.09 | 4 ± 0.01 | 2 ± 0.08 |
|  |  |  |  |  |  |  |  |  |  |  |  | CCc1cc(OC)ccc1-c1ccc(CC(NC(=O)[C@H](CC(=O)O)NC(=O)[C@H](CO)NC(=O)[C@@H](NC(=O)C(C)(Cc2ccccc2F)NC(=O)[C@@H](NC(=O)CNC(=O)[C@H](CC(C(F)(F)F)C(F)(F)F)NC(=O)C(C)(C)NC(=O)[C@@H](N)Cc2c[nH]cn2)[C@H](C)O)[C@H](C)O)C(=S)NC(CCCc2ccccc2F)C(N)=O)cc1 (stereo partly drawn) [compound 218] (H-H[Aib][Leu(5,5,5,5',5',5'-F6)]G[aThr][ξαMePhe(2-F)][aThr]SD-X5) | 12.3 ± 0.33 | 14.8 ± 0.16 | 28.1 ± 0.22 | 9 ± 0.11 | 6 ± 0.12 | 5 ± 0.14 | 3 ± 0.22 | 0 |
|  |  |  |  |  |  |  |  |  |  |  |  | CCc1cc(OC)ccc1-c1ccc(CC(CNC(CCCc2ccccc2F)C(N)=O)NC(=O)[C@H](CC(=O)O)NC(=O)[C@H](CO)NC(=O)[C@@H](NC(=O)C(C)(Cc2ccccc2F)NC(=O)[C@@H](NC(=O)CNC(=O)C(CCC#N)NC(=O)C(C)(C)NC(=O)[C@@H](N)Cc2c[nH]cn2)[C@H](C)O)[C@H](C)O)cc1 (single isomer, unassigned) [compound 192] | 16.6 ± 0.41 | 22.9 ± 0.32 | 36.7 ± 0.11 | 4 ± 0.09 | 2 ± 0.12 | 0 | 0 | 0 |
|  |  |  |  |  |  |  |  |  |  |  |  | CCc1cc(OC)ccc1-c1ccc(CC(NC(=O)[C@H](CC(=O)O)NC(=O)[C@H](CO)NC(=O)[C@@H](NC(=O)C(C)(Cc2ccccc2F)NC(=O)[C@@H](NC(=O)CNC(=O)[C@H](CC(C(F)(F)F)C(F)(F)F)NC(=O)C(C)(C)NC(=O)[C@@H](N)Cc2c[nH]cn2)[C@@H](C)O)[C@H](C)O)C(=O)NC(CCCc2ccccc2)C(N)=O)cc1 (single isomer, unassigned) [compound 225] | 12.4 ± 0.22 | 15.2 ± 0.32 | 29.6 ± 0.50 | 5 ± 0.01 | 2 ± 0.17 | 0 | 0 | 0 |

From patent publication US8883963B2 (Cadila Healthcare Limited, priority 2007, dated 2014)
